Key:
GPR6 = target: T1, GPR6 (Homo sapiens, UniProt P46095); assay: membrane-based cyclic AMP confirmation assay (Example 4C); format: biochemical; conditions: mean +/- standard deviation (number of assays in brackets); read-out: IC50 Values Cyclic AMP Assay Example 4C
T1 construct: expressed in transfected cells; 293 cells are used elsewhere
Source text: Using an independent assay approach to provide confirmation of a directly identified candidate compound as set forth above, it is preferred that a confirmation assay then be utilized. In this case, the preferred confirmation assay is membrane-based cyclic AMP (cAMP) assay.
A modified Flash Plate™ Adenylyl Cyclase kit (New England Nuclear; Cat. No. SMP004A) was utilized for confirmation of candidate compounds directly identified as inverse agonists and agonists to endogenous, constitutively activated orphan GPCRs in accordance with the following protocol.
Transfected stable cells were harvested approximately three days after transfection. Membranes were prepared by homogenization of suspended cells in buffer containing 20 mM HEPES, pH 7.4 and 10 mM MgCl2. Homogenization was performed on ice using a Brinkman Polytron™ for approximately 10 seconds. The resulting homogenate was centrifuged at 20,000 rpm for 20 minutes at 4° C. The resulting pellet was then resuspended in buffer containing 20 mM HEPES, pH 7.4 and 0.1 mM EDTA, homogenized for 10 seconds, followed by centrifugation at 20,000 rpm for 20 minutes at 4° C. The resulting pellet can be stored at −80° C. until utilized. On the day of direct identification screening, the membrane pellet is slowly thawed at room temperature, resuspended in buffer containing 20 mM HEPES, pH 7.4, 100 mM NaCl and 10 mM MgCL2, to yield a final protein concentration of 0.60 mg/ml (the resuspended membranes are placed on ice until use).
Candidate compounds identified as per above (if frozen, thawed at room temperature) were added to plate wells (3 μl/well; 12 μM final assay concentration), together with 50 μl Membrane Protein (30 μg/well) and 50 μl of Assay Buffer. This admixture was then incubated for 30 minutes at room temperature, with gentle shaking.
Following the incubation, 100 μl of Detection Buffer was added to each well, followed by incubation for 2-20 hours. Plates were subsequently aspirated and then counted in a Wallac MicroBeta™ plate reader using “Prot. #31” (as per manufacturer instructions).

GPR6:Gsα-Fusion Protein = target: T2, GPR6:Gsα-Fusion Protein (Homo sapiens, UniProt P46095); assay: [35S]GTPγS membrane binding assay (Example 4A); format: biochemical; conditions: mean +/- standard deviation (number of assays in brackets); read-out: IC50 Values GTP Assay Example 4A
T2 construct: expressed in transfected cells
T2 sequence (P46095 with tags, fused parts or gaps): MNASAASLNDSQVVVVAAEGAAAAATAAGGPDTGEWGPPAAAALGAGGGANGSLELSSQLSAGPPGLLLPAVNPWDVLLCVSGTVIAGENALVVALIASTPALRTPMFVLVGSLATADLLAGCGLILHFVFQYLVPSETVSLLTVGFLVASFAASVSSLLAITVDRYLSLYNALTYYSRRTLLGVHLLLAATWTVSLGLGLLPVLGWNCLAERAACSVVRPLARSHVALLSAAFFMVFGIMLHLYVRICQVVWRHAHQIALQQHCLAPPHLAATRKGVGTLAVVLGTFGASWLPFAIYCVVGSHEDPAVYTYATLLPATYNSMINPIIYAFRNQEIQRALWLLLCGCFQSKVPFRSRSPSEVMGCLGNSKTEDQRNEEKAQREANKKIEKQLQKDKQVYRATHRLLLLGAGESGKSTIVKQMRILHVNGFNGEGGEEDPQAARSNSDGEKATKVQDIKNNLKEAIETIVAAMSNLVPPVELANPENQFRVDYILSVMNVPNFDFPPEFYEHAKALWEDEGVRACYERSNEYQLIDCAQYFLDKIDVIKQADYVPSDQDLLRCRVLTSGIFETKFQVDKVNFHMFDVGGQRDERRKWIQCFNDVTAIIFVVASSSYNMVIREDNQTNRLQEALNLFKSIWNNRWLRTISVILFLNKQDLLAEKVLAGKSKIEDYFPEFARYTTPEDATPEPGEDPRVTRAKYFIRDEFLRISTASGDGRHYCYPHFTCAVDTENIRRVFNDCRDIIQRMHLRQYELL
Description: The assay plates were then centrifuged at 400 rpm for 15 minutes at room temperature and then subsequently aspirated and counted in a scintillation counter.
Membranes expressing the GPCR6:Gsα-Fusion Protein (see Example 2) and for use in the direct identification of candidate compounds as inverse agonists, agonists or partial agonists were prepared as follows:
All materials were kept on ice throughout the procedure. Firstly, the media was aspirated from a confluent monolayer of cells, followed by rinse with 10 ml cold PBS, followed by aspiration. Thereafter, 5 ml of membrane Scrape Buffer was added to scrape cells; this was followed by transfer of cellular extract into 50 ml centrifuge tubes (centrifuged at 20,000 rpm for 17 minutes at 4° C.). Thereafter, the supernatant was aspirated and the pellet was resuspended in 30 ml Membrane Wash Buffer followed by centrifuge at 20,000 rpm for 17 minutes at 4° C. The supernatant was then aspirated and the pellet resuspended in Binding Buffer. This was then homogenized using a Brinkman polytron™ homogenizer (15-20 second bursts until the all material was in suspension). This is referred to herein as “Membrane Protein”.
Candidate compounds (Tripos, Inc., St. Louis, Mo.) were received in 96-well plates (these can be frozen at −80° C.). Membrane Protein (or membranes with expression vector excluding the GPR6:Gsα-Fusion Protein, as control), were homogenized briefly until in suspension. Protein concentration was then determined using the Bradford Protein Assay set forth above. […] Thereafter, 100 ul GDP Buffer was added to each well of a Wallac Scintistrip™ (Wallac). A 5 ul pin-tool was then used to transfer 5 ul of a candidate compound into such well (i.e., 5 ul in total assay volume of 200 ul is a 1:40 ratio such that the final screening concentration of the candidate compound is 10 uM). Again, to avoid contamination, after each transfer step the pin tool was rinsed in three reservoirs comprising water (1×), ethanol (1×) and water (2×)—excess liquid should be shaken from the tool after each rinse and dried with paper towels and kimwipes™. Thereafter, 50 ul of Membrane Protein was added to each well (a control well comprising membranes without the GPCR Fusion Protein is also utilized), and pre-incubated for 5-10 minutes at room temperature (the plates were covered with foil in that the candidate compounds obtained from Tripos are light sensitive). Thereafter, 50 ul of [^35S]GTPγS (0.6 nM) in Binding Buffer was added to each well, followed by incubation on a shaker for 60 minutes at room temperature (again, in this example, plates were covered with foil). The assay was then stopped by spinning of the plates at 4000 RPM for 15 minutes at 22° C. The plates were then aspirated with an 8 channel manifold and sealed with plastic plate covers. The plates were then read on a Wallac 1450 using setting “Prot. #37” (as per manufacturer instructions).
The initial or “primary” screen designed to directly identify, e.g., human GPR6 receptor inverse agonists, consisted of the membrane-based GTPγS binding assay of Example 4A utilizing membranes prepared from 293 stable cells. Candidate compounds directly identified as inhibiting receptor-mediated increases in GTPγS as set forth below were considered active “leads”.
It is preferred that following such direct identification, IC50 (inverse agonist) or EC50 (agonist) values be determined; those having ordinary skill in the art are credited with utilizing IC50 and EC50 assay protocols of choice. FIG. 4 provides a representative IC50 curve for compound ARE112 using the assay protocol of Example 4A.

[1] = Food/water intake and body weight in 24-hour food deprived rats, oral gavage (PO); format: in vivo, rat
Description: Based upon the in vivo data developed, oral bioavailability of compound ARE112 was determined. The compound was administered by oral gavage at doses ranging from 6.75 to 54 mg/kg. The data presented in FIGS. 9A and 9B support the conclusion that oral administration of ARE112 also decreases food intake in both food-deprived and non-food deprived rats. […] In FIG. 9A, rats were deprived 24 hours prior to oral administration of the compound. In this assay, the vehicle-treated rats at 2.5 hours consumed […] of food while injected rats; particularly rats administered with 27 and 54 mg/kg of ARE 112, ate about 6 and 4 grams, respectively. […] (See, FIG. 9A).
Several other GPR6 inverse agonists were also assessed under 24-hour food deprived conditions, with PO administration. The analogs listed below were tested at 200 μmol/kg, which is equivalent to 54 mg/kg. In addition, ARE114 was also assessed at […]. Data are summarized below in Table C:
In a second assay, tested under the same conditions, several other analogs were assessed at 100 μmol/kg.
In FIG. 10, rats were deprived 24 hours prior to oral administration of the compound. In this assay, analogs ARE130, ARE135, ARE136, and ARE140, were administered at a dose of 100 μmol/kg. Three analogs, particularly, ARE130, ARE136 and ARE140 evidenced a slow intake of food (e.g., about 1 to 1.5 grams every two hours) over an eight hour period post-administration; while the vehicle rat consumed about 2 to 2.5 grams food every two hours. Similar to the vehicle rat, analog ARE135, an opened ring structure, evidenced that over an eight hour period post-administration the rats increasingly consumed about 2.5 grams every two hours. (See, FIG. 10A). Furthermore, the body weight of the vehicle rat and administered rats with analog ARE135 gained about 19.5 grams. On the other hand, the closed ring structures evidenced a decrease in body weight gain as follows: ARE112-6 grams, ARE130-9 grams, ARE136-11 grams and ARE140-14 grams. See, FIG. 10C.

[2] = 100 μmol/kg PO, second assay, Table D, vehicle 19.25

T1 sequence (P46095 whole entry): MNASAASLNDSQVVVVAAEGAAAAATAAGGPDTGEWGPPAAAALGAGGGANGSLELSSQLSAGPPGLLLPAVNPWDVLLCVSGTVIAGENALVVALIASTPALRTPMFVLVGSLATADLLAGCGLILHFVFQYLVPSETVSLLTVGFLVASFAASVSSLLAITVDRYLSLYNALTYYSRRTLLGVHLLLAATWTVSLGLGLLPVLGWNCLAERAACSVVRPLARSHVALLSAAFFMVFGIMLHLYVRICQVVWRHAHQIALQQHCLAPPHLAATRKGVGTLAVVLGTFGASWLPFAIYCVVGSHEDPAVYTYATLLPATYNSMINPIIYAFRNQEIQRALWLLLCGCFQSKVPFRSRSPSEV

SMILES | IC50 (GPR6) | IC50 (GPR6:Gsα-Fusion Protein) | other results
COc1cccc(C(=O)N=C2SSC3=NCCN32)c1 [ARE124, N-(5,6-dihydro-3H-imidazo[2,1-c]-1,2,4-dithiazol-3-ylidene)-3-methoxybenzamide] | 0.4 µM | 0.31 µM | –
O=C(N=C1SSC2=NCCN21)c1ccccc1F [ARE132, N-(5,6-dihydro-3H-imidazo[2,1-c]-1,2,4-dithiazol-3-ylidene)-2-fluorobenzamide] | 0.1 µM | 0.35 µM | –
O=C(/N=C1\SSC2=NCCN21)c1ccc2ccccc2c1 [ARE136] | – | – | Cumulative Food Intake (g) (8 hr post administration) ([1]; 100 μmol/kg PO, second assay, Table D, vehicle 14.0): 9.0 g; Body Weight Gain (g) (6 hr post administration) [1, 2]: 11.0 g; Cumulative Water Intake (g) (6 hr post administration) [1, 2]: 15.25 g; water drunk less than the vehicle animal (FIG. 10B) ([1]; 100 μmol/kg oral): ~4 grams; body weight gain (FIG. 10C) ([1]; 100 μmol/kg oral, vehicle about 19.5 grams): 11 grams
O=C(N=C1SSC2=NCCN21)c1ccc(C(F)(F)F)cc1 [ARE116, N-(5,6-dihydro-3H-imidazo[2,1-c]-1,2,4-dithiazol-3-ylidene)-4-trifluoromethylbenzamide] | 0.17 µM | 0.57 µM | –
O=C(/N=C1\SSC2=NCCN21)c1cccc2ccccc12 [ARE138, N-(5,6-dihydro-3H-imidazo[2,1-c]-1,2,4-dithiazol-3-ylidene)-naphthyl-1-carboxamide] | 0.13 µM | 0.45 µM | –
Cc1cccc(C(=O)N=C2SSC3=NCCN32)c1 [ARE126, N-(5,6-dihydro-3H-imidazo[2,1-c]-1,2,4-dithiazol-3-ylidene)-3-methylbenzamide] | 0.14 µM | 0.79 µM | –
Cc1noc(C)c1C(=O)/N=C1\SSC2=NCCN21 [ARE148] | 0.35 µM | 0.46 µM | –
O=C(N=C1SSC2=NCCN21)c1ccon1 [ARE150, N-(5,6dihydro-3H-imidazo[2,1-c]-1,2,4-dithiazol-3-ylidene)-isoxazole-3-carboxamide] | 0.1 µM | 0.33 µM | –
O=C(N=C1SSC2=NCCN21)c1cnn(-c2ccc(Cl)cc2)c1C(F)(F)F [ARE152, N-(5,6dihydro-3H-imidazo[2,1-c]-1,2,4-dithiazol-3-ylidene)-2-(4-chlorophenyl)-3-(trifluoromethyl)pyrazole-4-carboxamide] | – | 0.19 µM | –

Continued, in another order:

IC50 (GPR6) | IC50 (GPR6:Gsα-Fusion Protein) | SMILES | other results
4.52 µM | 0.26 µM | O=C(NC(=S)N1CCNC1=S)c1cc2ccccc2s1 [ARE139, N-(2-thioxo-imidazolidine-1-carbothioyl)-benzothiophen-2-carboxamide] | –
– | 100 µM | O=C(NC(=S)N1CCNC1=S)c1ccccc1 [ARE113, N-(2-thioxo-imidazolidine-1-carbothioyl)-benzamide] | –
160 µM | 68.3 µM | O=C(NC(=S)N1CCNC1=S)c1ccco1 [ARE143, N-(2-thioxo-imidazolidine-1-carbothioyl)-furan-2-carboxamide] | –
100 µM | – | O=C(NC(=S)N1CCNC1=S)c1cccc2ccccc12 [ARE137, N-(2-thioxo-imidazolidine-1-carbothioyl)-naphthyl-1-carboxamide] | –
120 µM | 3.8 µM | Cc1cccc(C(=O)NC(=S)N2CCNC2=S)c1 [ARE125, N-(2-thioxo-imidazolidine-1-carbothioyl)-3-methylbenzamide] | –
0.48 µM | 1.25 µM | O=C(NC(=S)N1CCNC1=S)c1ccc(F)cc1 [ARE127, N-(2-thioxo-imidazolidine-1-carbothioyl)-4-fluorobenzamide] | –
1.97 µM | 0.45 µM | O=C(NC(=S)N1CCNC1=S)c1ccc(Cl)cc1 [ARE119, N-(2-thioxo-imidazolidine-1-carbothioyl)-4-chlorobenzamide] | –
51 µM | 56 µM | COc1cccc(C(=O)NC(=S)N2CCNC2=S)c1 [ARE123, N-(2-thioxo-imidazolidine-1-carbothioyl)-3-methoxybenzamide] | –
55 µM | 122 µM | COc1ccc(C(=O)NC(=S)N2CCNC2=S)cc1 [ARE121, N-(2-thioxo-imidazolidine-1-carbothioyl)-4-methoxybenzamide] | –
3.65 µM | 1.57 µM | O=C(NC(=S)N1CCNC1=S)c1ccc(C(F)(F)F)cc1 [ARE115, N-(2-thioxo-imidazolidine-1-carbothioyl)-4-trifluoromethylbenzamide] | –
– | 2.46 µM | O=C(NC(=S)N1CCNC1=S)c1cnn(-c2ccc(Cl)cc2)c1C(F)(F)F [ARE153, N-(2-thioxo-imidazolidine-1-carbothioyl)-2-(4-chlorophenyl)-3-(trifluoromethyl)pyrazole-4-carboxamide] | –
– | 43 µM | O=C(NC(=S)N1CCNC1=S)c1ccccc1F [ARE131, N-(2-thioxo-imidazolidine-1-carbothioyl)-2-fluorobenzamide] | –
80 µM | – | CSc1ncccc1C(=O)NC(=S)N1CCNC1=S [ARE154, N-(2-thioxo-imidazolidine-1-carbothioyl)-pyridine-2-methylthio-3-carboxamide] | –
